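48-hour exposure; five concentrations; linearly interpolated endpoints. Abbreviation: GI50, concentration required for 50% inhibition of growth. Definition used: TGI = concentration required for complete inhibition of growth.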
What was measured:
Assay in all cases: NCI tumour cell line growth inhibition, 48 h
SK-MEL-5 melanoma = system: SK-MEL-5 melanoma
XF 498 CNS = system: XF 498 CNS
NCI-H460 lung = system: NCI-H460 lung
HCT-116 colon = system: HCT-116 colon
UACC-62 melanoma = system: UACC-62 melanoma
SW-620 colon = system: SW-620 colon
M19-MEL melanoma = system: M19-MEL melanoma
UACC-257 melanoma = system: UACC-257 melanoma
HL-60(TB) leukemia = system: HL-60(TB) leukemia
DLD-1 colon = system: DLD-1 colon
IGROV1 ovarian = system: IGROV1 ovarian
SK-MEL-28 melanoma = system: SK-MEL-28 melanoma
SNB-78 CNS = system: SNB-78 CNS
SN12K1 renal = system: SN12K1 renal
P388/ADR leukemia = system: P388/ADR leukemia
HT29 colon = system: HT29 colon
K-562 leukemia = system: K-562 leukemia
SNB-75 CNS = system: SNB-75 CNS
HCT-15 colon = system: HCT-15 colon
COLO 205 colon = system: COLO 205 colon
KM20L2 colon = system: KM20L2 colon
OVCAR-3 ovarian = system: OVCAR-3 ovarian
A549 NSCLC = system: A549 NSCLC
RPMI-8226 leukemia = system: RPMI-8226 leukemia
NCI-H23 lung = system: NCI-H23 lung
OVCAR-4 ovarian = system: OVCAR-4 ovarian
SF-295 CNS = system: SF-295 CNS
KM12 colon = system: KM12 colon
HCC-2998 colon = system: HCC-2998 colon
SK-OV-3 ovarian = system: SK-OV-3 ovarian
DMS 114 small cell lung = system: DMS 114 small cell lung
SN12C renal = system: SN12C renal
HOP-62 NSCLC = system: HOP-62 NSCLC
U251 CNS = system: U251 CNS
DMS 273 small cell lung = system: DMS 273 small cell lung
MCF7 breast = system: MCF7 breast
UO-31 renal = system: UO-31 renal
CCRF-CEM leukemia = system: CCRF-CEM leukemia
SF-539 CNS = system: SF-539 CNS
LOX IMVI melanoma = system: LOX IMVI melanoma
MALME-3M melanoma = system: MALME-3M melanoma
OVCAR-5 ovarian = system: OVCAR-5 ovarian
CAKI-1 renal = system: CAKI-1 renal
SK-MEL-2 melanoma = system: SK-MEL-2 melanoma
RXF 393 renal = system: RXF 393 renal
P388 leukemia = system: P388 leukemia
HOP-18 NSCLC = system: HOP-18 NSCLC
OVCAR-8 ovarian = system: OVCAR-8 ovarian
SF-268 CNS = system: SF-268 CNS
NCI-H226 lung = system: NCI-H226 lung
NCI/ADR-RES ovarian = system: NCI/ADR-RES ovarian
SNB-19 CNS = system: SNB-19 CNS
HOP-92 NSCLC = system: HOP-92 NSCLC
A498 renal = system: A498 renal
EKVX NSCLC = system: EKVX NSCLC
NCI-H522 lung = system: NCI-H522 lung
MOLT-4 leukemia = system: MOLT-4 leukemia

`Cc1ccc2cc3cccc(C(=O)NCCN(C)C)c3nc2c1` showed a TGI (SK-MEL-5 melanoma) of 2.66 µM, a TGI (XF 498 CNS) of 3.68 µM and a TGI (NCI-H460 lung) of 1.94 µM. For the same molecule, the TGI (HCT-116 colon) was 6.23 µM, the TGI (UACC-62 melanoma) was 3.16 µM and the TGI (SW-620 colon) was 6.46 µM. For the same molecule, the TGI (M19-MEL melanoma) was 3.01 µM, the TGI (UACC-257 melanoma) was 2.74 µM and the TGI (HL-60(TB) leukemia) was 2.49 µM. It also gave a TGI (DLD-1 colon) of 8.36 µM, a TGI (IGROV1 ovarian) of 9.09 µM and a TGI (SK-MEL-28 melanoma) of 3.39 µM. For the same molecule, the TGI (SNB-78 CNS) was 7.78 µM, the TGI (SN12K1 renal) was 5.59 µM and the TGI (P388/ADR leukemia) was 1.46 µM. It also gave a TGI (HT29 colon) of 2.67 µM, a TGI (K-562 leukemia) of over 31.3 µM and a TGI (SNB-75 CNS) of 4.75 µM. For the same molecule, the TGI (HCT-15 colon) was 9.17 µM, the TGI (COLO 205 colon) was 2.51 µM and the TGI (KM20L2 colon) was 3.08 µM. The TGI (OVCAR-3 ovarian) was 5.67 µM, the TGI (A549 NSCLC) was 5.05 µM and the TGI (RPMI-8226 leukemia) was 7.42 µM. It also gave a TGI (NCI-H23 lung) of 3.4 µM, a TGI (OVCAR-4 ovarian) of 6.11 µM and a TGI (SF-295 CNS) of 3.91 µM. The TGI (KM12 colon) was 10 µM, the TGI (HCC-2998 colon) was 3.04 µM and the TGI (SK-OV-3 ovarian) was 7.87 µM. It also gave a TGI (DMS 114 small cell lung) of 2.58 µM, a TGI (SN12C renal) of 6.39 µM and a TGI (HOP-62 NSCLC) of 6.17 µM. The TGI (U251 CNS) was 9.2 µM, the TGI (DMS 273 small cell lung) was 2.8 µM and the TGI (MCF7 breast) was 5.19 µM. For the same molecule, the TGI (UO-31 renal) was 3.19 µM, the TGI (CCRF-CEM leukemia) was 5.54 µM and the TGI (SF-539 CNS) was 3.57 µM. It also gave a TGI (LOX IMVI melanoma) of 6.08 µM, a TGI (MALME-3M melanoma) of 2.49 µM and a TGI (OVCAR-5 ovarian) of 4.28 µM. The TGI (CAKI-1 renal) was 10.8 µM, the TGI (SK-MEL-2 melanoma) was 3.55 µM and the TGI (RXF 393 renal) was 2.73 µM. The TGI (P388 leukemia) was 1.26 µM, the TGI (HOP-18 NSCLC) was 7.36 µM and the TGI (OVCAR-8 ovarian) was 6.45 µM. It also gave a TGI (SF-268 CNS) of 4.03 µM, a TGI (NCI-H226 lung) of 4.16 µM and a TGI (NCI/ADR-RES ovarian) of 5.07 µM. It also gave a TGI (SNB-19 CNS) of 8.1 µM, a TGI (HOP-92 NSCLC) of 2.75 µM and a TGI (A498 renal) of 2.37 µM. The TGI (EKVX NSCLC) was 3.44 µM.
`COC(=O)C1C(O)C(C)C(O)C(C)(O)/C=C/C=C(C)C(=O)Nc2c(C)c(OC(C)=O)c3c(c2O)C(=O)C(C)=C2OCOC(=C23)C(C)=CC(C)(O)C(O)C(C)C1OC(C)=O` (stereo not drawn) gave a TGI (SK-MEL-5 melanoma) of over 78.5 µM, a GI50 (NCI-H460 lung) of 19.9 µM and a TGI (NCI-H460 lung) of 38.6 µM. The GI50 (HCT-116 colon) was 18.1 µM, the TGI (HCT-116 colon) was 34.5 µM and the TGI (UACC-62 melanoma) was 47.7 µM. For the same molecule, the GI50 (SW-620 colon) was 31.6 µM, the TGI (SW-620 colon) was 63.3 µM and the TGI (M19-MEL melanoma) was 31.8 µM. The GI50 (UACC-257 melanoma) was 20.1 µM, the TGI (UACC-257 melanoma) was 44.8 µM and the TGI (HL-60(TB) leukemia) was 49.8 µM. It also gave a TGI (DLD-1 colon) of 43.3 µM, a TGI (IGROV1 ovarian) of 80.5 µM and a TGI (NCI-H522 lung) of 56 µM. It also gave a GI50 (SK-MEL-28 melanoma) of 33.4 µM, a TGI (SK-MEL-28 melanoma) of 59.7 µM and a GI50 (SNB-78 CNS) of 37.9 µM. It also gave a TGI (SNB-78 CNS) of 91.2 µM, a TGI (SN12K1 renal) of 60.8 µM and a TGI (P388/ADR leukemia) of over 83.1 µM. For the same molecule, the TGI (HT29 colon) was over 92.7 µM, the GI50 (K-562 leukemia) was 30.7 µM and the TGI (K-562 leukemia) was 60.5 µM. For the same molecule, the TGI (SNB-75 CNS) was over 63.1 µM, the TGI (HCT-15 colon) was 69.6 µM and the TGI (COLO 205 colon) was 39.3 µM. For the same molecule, the TGI (KM20L2 colon) was over 88.6 µM, the GI50 (OVCAR-3 ovarian) was 22.4 µM and the TGI (OVCAR-3 ovarian) was 63.1 µM. For the same molecule, the TGI (A549 NSCLC) was over 100 µM, the GI50 (RPMI-8226 leukemia) was 27.1 µM and the TGI (RPMI-8226 leukemia) was 54.9 µM. For the same molecule, the TGI (NCI-H23 lung) was 52.7 µM, the TGI (OVCAR-4 ovarian) was over 100 µM and the TGI (SF-295 CNS) was over 100 µM. For the same molecule, the GI50 (KM12 colon) was 19.2 µM, the TGI (KM12 colon) was 35.2 µM and the TGI (HCC-2998 colon) was 85.5 µM. The TGI (SK-OV-3 ovarian) was over 100 µM, the TGI (DMS 114 small cell lung) was 25.4 µM and the TGI (SN12C renal) was 47.9 µM. The TGI (HOP-62 NSCLC) was over 100 µM, the TGI (U251 CNS) was over 100 µM and the TGI (DMS 273 small cell lung) was over 100 µM. For the same molecule, the TGI (MCF7 breast) was 34.5 µM, the TGI (UO-31 renal) was over 100 µM and the TGI (MOLT-4 leukemia) was 54.8 µM. The GI50 (CCRF-CEM leukemia) was 28.1 µM, the TGI (CCRF-CEM leukemia) was 55.8 µM and the TGI (SF-539 CNS) was 76.4 µM. The TGI (LOX IMVI melanoma) was 41.2 µM, the GI50 (MALME-3M melanoma) was 22.6 µM and the TGI (MALME-3M melanoma) was 43.8 µM. It also gave a TGI (OVCAR-5 ovarian) of over 100 µM, a GI50 (CAKI-1 renal) of 37.1 µM and a TGI (CAKI-1 renal) of 86.9 µM. The TGI (SK-MEL-2 melanoma) was 39.7 µM, the TGI (RXF 393 renal) was 33.4 µM and the TGI (P388 leukemia) was 52.2 µM. It also gave a TGI (HOP-18 NSCLC) of over 100 µM, a GI50 (OVCAR-8 ovarian) of 42.9 µM and a TGI (OVCAR-8 ovarian) of 92.1 µM. For the same molecule, the GI50 (SF-268 CNS) was 39.9 µM, the TGI (SF-268 CNS) was 75.8 µM and the GI50 (NCI-H226 lung) was 50.7 µM. The TGI (NCI-H226 lung) was over 100 µM, the TGI (NCI/ADR-RES ovarian) was over 100 µM and the TGI (SNB-19 CNS) was over 100 µM. The GI50 (HOP-92 NSCLC) was 15.9 µM, the TGI (HOP-92 NSCLC) was 35.1 µM and the TGI (A498 renal) was over 56.2 µM. It also gave a TGI (EKVX NSCLC) of 67.8 µM.

— PubChem BioAssay (NCI)
